SMILES strings stand for the structures. Converted amounts (≈) assume the structure as drawn. Where only a bound is given, the exact number is not on record here.

For orientation: LD50 means the dose at which mortality reaches 50%.

A short description of series [1]: Acute toxicity by intravenous injection into mice. As to conditions: mouse, in vivo, free base. The method, then:
The acute toxicity of xylostasin was examined by intravenous injection into mice. The LD50 value for the free base was approximately 1,000 mg/kg.

The next series deals with Escherichia coli 0-111. In words: Anti-infection test in mice. In kind it is in vivo. As to conditions: mice infected with Escherichia coli 0-111; single subcutaneous dose of 10 mg/kg immediately after infection.
In series [2] the test system is Bacillus subtilis PCI 219. Description: Minimal inhibitory concentration by the agar dilution method. As to conditions: PCI219, bouillon agar. In kind it is cell-based. The text has this: (§1) Minimal inhibitory concentrations by the
(§2) The media used for the test are bouillon agar for the common bacteria and glycerin bouillon agar for acid fast bacteria.
A general note: In agar dilution the substance is mixed into plates at graded concentrations.

Series [3] has as its system Mycobacterium avium IFO 3153. The series is described as above. The format is cell-based. As to conditions: IFO3153, glycerin bouillon agar.
Description: as §1, §2

The subject of series [4] is Staphylococcus aureus FDA 209P. The series is described as above. In kind it is cell-based. As to conditions: FDA209P, bouillon agar.
Description: as §1, §2

Series [5] has as its system Mycobacterium avium (Streptomycin-resistant). Described as above. The format is cell-based. As to conditions: read-out: Minimal inhibitory concentration.
Description: as §1, §2

A further series deals with Sarcina lutea IFO 3232. Described as above. The format is cell-based. As to conditions: Micrococcus luteus, IFO3232, bouillon agar.
Description: as §1, §2

Another series deals with Bacillus brevis IFO 3331. The description is as above. The format is cell-based. As to conditions: Brevibacillus brevis, IFO3331, bouillon agar.
Description: as §1, §2

Series [6] deals with Proteus vulgaris IFO 3045. The description is as above. In kind it is cell-based. As to conditions: IFO3045, bouillon agar.
Description: as §1, §2

For a further series, the system named is Shigella flexneri EW-10. The series is described as above. In kind it is cell-based. As to conditions: EW10, bouillon agar.
Description: as §1, §2

Series [7] relates to Escherichia coli IFO 3044. The series is described as above. In kind it is cell-based. As to conditions: IFO3044, bouillon agar.
Description: as §1, §2

In series [8] the test system is Mycobacterium smegmatis IFO 3083. Described as above. The format is cell-based. As to conditions: Mycolicibacterium smegmatis, IFO3083, glycerin bouillon agar.
Description: as §1, §2

For series [9], the system named is Mycobacterium phlei IFO 3158. The series is described as above. As to conditions: Mycolicibacterium phlei, IFO3158, glycerin bouillon agar. In kind it is cell-based.
Description: as §1, §2

The subject of another series is Bacillus cereus IFO 3466. The series is described as above. As to conditions: IFO3466, bouillon agar. The format is cell-based.
Description: as §1, §2

The test system of series [10] is Pseudomonas aeruginosa IFO 3080. The description is as above. In kind it is cell-based. As to conditions: IFO3080, bouillon agar.
Description: as §1, §2

Series [11] has as its system Mycobacterium avium (Neomycin-resistant). Described as above. As to conditions: read-out: Minimal inhibitory concentration. In kind it is cell-based.
Description: as §1, §2

Regarding `NC[C@H]1O[C@H](O[C@H]2[C@H](O[C@@H]3O[C@H](CO)[C@H](O)[C@H]3O)[C@@H](O)[C@H](N)C[C@@H]2N)[C@H](N)[C@@H](O)[C@@H]1O` [xylostasin, O-β-D-xylofuranosyl-(1 → 5)-O-[α-2,6-diamino-2,6-dideoxy-D-glucopyranosyl-(1 → 4)]-2-deoxystreptamine], the median lethal dose (LD50) in series [1] is ~1000 mg/kg. In addition, in the series on Escherichia coli 0-111, the “death of the mice” value is listed as “completely prevented”. Further, the MIC in series [2] worked out at 3.12 mg/L (≈ 6.88 µM); in [3], 1.6 mg/L (≈ 3.52 µM); in series [4], 6.25 mg/L (≈ 13.8 µM); in series [5], 3.12 mg/L (≈ 6.88 µM); against Sarcina lutea IFO 3232 it was 25 mg/L (≈ 55 µM); in the series with Bacillus brevis IFO 3331, 25 mg/L (≈ 55 µM). Further, the MIC in series [6] was determined as 50 mg/L (≈ 110 µM); against Shigella flexneri EW-10 it was 12.5 mg/L (≈ 27.5 µM); in series [7], 6.25 mg/L (≈ 13.8 µM); in series [8], 1.6 mg/L (≈ 3.52 µM); in series [9], 1.6 mg/L (≈ 3.52 µM); against Bacillus cereus IFO 3466 it was 50 mg/L (≈ 110 µM). The MIC in [10] and in series [11] was > 50 mg/L each time.

(Values after patent US3953293A, “Process for the preparation of xylostasin” (Takeda Chemical Industries, Ltd., priority 1972, dated 1976).)
